Assay results as given in patent US20040225172A1, “Use of ionic liquids to separate olefins, diolefins and aromatics” (NOVA Chemicals (International) S.A., priority 2002, published 2004).
Like-named read-outs stand apart in the source and are kept apart here. Each block holds one molecule with its values, some of them ahead of it.

Columns and labels:
[1] = Cyclo-C8 hydrocarbon solubility in ionic liquids
[2] = C5 hydrocarbon solubility in ionic liquid (volume change of hydrocarbon phase)
Procedure: The locations of all meniscuses were then recorded. […] The testing was conducted at ambient temperature.

[3] = ambient temperature; for Propane absorbed (mol C3H8/L absorbent) / Propylene absorbed (mol C3H6/L absorbent): equilibrium
Procedure: The testing apparatus consists of two sample cylinders (one 1000 cc cylinder and one 150 cc cylinder) connected by ⅛-inch tubing with valves allowing for isolation of each cylinder. A digital pressure gauge indicates the larger cylinder pressure and the pressure of the system when the cylinders are not isolated.
To measure absorption, 50 mL of bmim^+ BF4^− absorbent was loaded into the smaller cylinder and the larger cylinder was pressurized with the hydrocarbon gas. The amount of gas absorbed by the sample of bmim^+BF4^− is proportional to the pressure drop that occurs when the sample is exposed to the test gas, and can be calculated knowing the internal volume of the closed system.
The sample was then exposed to the gas in the large 1000 cc cylinder as the valve separating the cylinders was opened. The initial pressure drop was recorded. The sample was stirred via magnetic stirrer. When the system came to equilibrium (no pressure changed for over 1 hour) the final absorption pressure was recorded and the cylinders were once again separated. This procedure could be repeated for different absorption pressures. Experiments were conducted at ambient temperature.
Between experimental runs, the absorbent was degassed by bubbling a nitrogen entrainment gas through the absorbent for 2 to 3 hours.

[4] = in bmim^+ BF4^− ionic liquid, ambient temperature

- Solubility in mbpy^+ BF4^− (mol C8/L ionic liquid) [1]: 0.551 mol C8/L ionic liquid
SMILES: CCc1ccccc1 [Ethylbenzene, ethylbenzene]

SMILES: CC=C(C)C [2-Methyl-2-Butene, 2-methyl-2-butene]
- Selectivity over Isopentane [2, 4]: 10.6
- Solubility (mol C5/L ionic liquid) [2, 4]: 0.360 mol C5/L ionic liquid

- Solubility (mol C5/L ionic liquid) [2]: 0.034 mol C5/L ionic liquid
SMILES: CCC(C)C [Isopentane, isopentane]

SMILES: C=CC(=C)C [Isoprene, isoprene]
- Selectivity over Isopentane [2, 4]: 18.0
- Solubility (mol C5/L ionic liquid) [2, 4]: 0.611 mol C5/L ionic liquid

- C3H6:C3H8 Selectivity ([3]; 50.0 psig): 3.55
- Propane absorbed (mol C3H8/L absorbent) ([3]; 50.0 psig): 0.011 mol C3H8/L absorbent
- Propylene absorbed (mol C3H6/L absorbent) ([3]; 50.0 psig): 0.039 mol C3H6/L absorbent
- C3H6:C3H8 Selectivity ([3]; 72.6 psig): 9.92
- Propane absorbed (mol C3H8/L absorbent) ([3]; 72.6 psig): 0.012 mol C3H8/L absorbent
- Propylene absorbed (mol C3H6/L absorbent) ([3]; 72.6 psig): 0.119 mol C3H6/L absorbent
SMILES: CCCCn1cc[n+](C)c1.F[B-](F)(F)F [bmim^+ BF4^−, 1-butyl-3-methylimidazolium tetrafluoroborate]
